Laboratory results reported in US10544153B2, “Benzoic acid, benzoic acid derivatives and heteroaryl carboxylic acid conjugates of oxycodone, prodrugs, methods of making and use thereof” (KemPharm, Inc., priority 2014, dated 2020).

Key:
[1] = Oral PK in rats: plasma concentrations of oxymorphone by LC-MS/MS; conditions: oxymorphone released; for AUC / Cmax / tmax: conjugate equivalent to 2 mg/kg freebase oxycodone; for %-AUC of OC / %-Cmax of OC / %-tmax of OC: relative to oxycodone (OC)
[2] = Oral PK in rats: plasma concentrations of released oxycodone by LC-MS/MS; conditions: for AUC / Cmax / tmax: conjugate equivalent to 2 mg/kg freebase oxycodone; for %-AUC of OC / %-Cmax of OC / %-tmax of OC: relative to oxycodone (OC)
[3] = Tamper resistance: percent of OC released under tampering conditions, LC-MS/MS; assay type: physicochemical; conditions: RT
Experimental: Effective abuse deterrent forms of drugs of abuse can also be resistant to chemical tampering. The prodrugs in the present technology also impart this characteristic. Several common tampering scenarios were employed and percent of OC released were determined by liquid chromatography with tandem mass spectrometry (LC-MS/MS). The results as shown in Table 7 indicated a very high degree of tamper resistance in the example OC prodrugs, releasing little to no OC.

[4] = Intranasal PK in rats: plasma concentrations of released oxymorphone by LC-MS/MS
[5] = Intranasal PK in rats (Table 4); conditions: title: oxymorphone released (released oxycodone)
[6] = Table 6, equivalent to 2 mg/kg freebase oxycodone
[7] = Table 6, relative to oxycodone (OC)
[8] = equivalent to 2 mg/kg freebase oxycodone

COc1ccc2c3c1OC1C(OC(=O)C(C)c4cccc(Oc5ccccc5)c4)=CCC4(O)C(C2)N(C)CCC314 (mixture of isomers) [6-Fenoprofen-OC]
AUC [1]: 4.6 ng·h/mL | Cmax [1]: 3.3 ng/mL | tmax [1]: 15 min | %-AUC of OC [1]: 67% | %-Cmax of OC [1]: 68% | %-tmax of OC [1]: 100% | AUC [2]: 21.6 ng·h/mL | Cmax [2]: 14.0 ng/mL | tmax [2]: 15 min | %-AUC of OC [2]: 69% | %-Cmax of OC [2]: 87% | %-tmax of OC [2]: 83%

COc1ccc2c3c1OC1C(OC(=O)C(C)c4cccc(C(=O)c5ccccc5)c4)=CCC4(O)C(C2)N(C)CCC314 (mixture of isomers) [6-Ketoprofen-OC]
AUC [1]: 4.3 ng·h/mL | Cmax [1]: 3.7 ng/mL | tmax [1]: 15 min | %-AUC of OC [1]: 62% | %-Cmax of OC [1]: 77% | %-tmax of OC [1]: 100% | AUC [2]: 25.5 ng·h/mL | Cmax [2]: 14.7 ng/mL | tmax [2]: 15 min | %-AUC of OC [2]: 81% | %-Cmax of OC [2]: 91% | %-tmax of OC [2]: 83% | percent of OC released ([3]; 1N HCl, 1 hour): 2% | percent of OC released ([3]; 5% Bicarbonate, 1 hour): 3% | percent of OC released ([3]; Water, 1 hour): 0% | percent of OC released ([3]; Water, 24 hours): <1%

COc1ccc2c3c1OC1C(OC(=O)C(C)c4ccc(CC(C)C)cc4)=CCC4(O)C(C2)N(C)CCC314 (mixture of isomers) [Conjugate 6-lbu-OC]
AUC [4, 6]: 0.7 ng·h/mL | Cmax [4, 6]: 1.0 ng/mL | tmax [4, 6]: 30 min | %-AUC of OC [4, 7]: 11% | %-Cmax of OC [4, 7]: 11% | %-tmax of OC [4, 7]: 143% | AUC [1]: 8.4 ng·h/mL | Cmax [1]: 3.7 ng/mL | tmax [1]: 69 min | %-AUC of OC [1]: 83% | %-Cmax of OC [1]: 59% | %-tmax of OC [1]: 131% | AUC [2]: 77.9 ng·h/mL | Cmax [2]: 39.5 ng/mL | tmax [2]: 26.4 min | %-AUC of OC [2]: 83% | %-Cmax of OC [2]: 62% | %-tmax of OC [2]: 47% | Cmax [5, 8]: 131.7 ng/mL | tmax [5, 8]: 4.98 min | %-Cmax of OC ([5]; relative to oxycodone (OC)): 10% | %-tmax of OC ([5]; relative to oxycodone (OC)): 100% | percent of OC released ([3]; 1N HCl, 1 hour): 2% | percent of OC released ([3]; 5% Bicarbonate, 1 hour): 2% | percent of OC released ([3]; Water, 1 hour): 0% | percent of OC released ([3]; Water, 24 hours): 0%

COc1cc(C(=O)OC2=CC[C@@]3(O)[C@H]4Cc5ccc(OC)c6c5[C@@]3(CCN4C)[C@H]2O6)ccc1O [4-OH-3-MeO-Bz-OC]
percent of OC released ([3]; 1N HCl, 1 hour): 0% | percent of OC released ([3]; 5% Bicarbonate, 1 hour): 0% | percent of OC released ([3]; Water, 1 hour): 0% | percent of OC released ([3]; Water, 24 hours): 0%

COc1ccc2c3c1O[C@H]1C(OC(=O)c4cccc(N)c4)=CC[C@@]4(OC(=O)c5cccc(N)c5)[C@@H](C2)N(C)CC[C@]314 [(3-ABz)2-OC]
percent of OC released ([3]; 1N HCl, 1 hour): 0% | percent of OC released ([3]; 5% Bicarbonate, 1 hour): 0% | percent of OC released ([3]; Water, 1 hour): 0% | percent of OC released ([3]; Water, 24 hours): 0%

COc1ccc2c3c1O[C@H]1C(OC(=O)c4cccc(O)c4)=CC[C@@]4(OC(=O)c5cccc(O)c5)[C@@H](C2)N(C)CC[C@]314 [(3-OH-Bz)2-OC]
percent of OC released ([3]; 1N HCl, 1 hour): 0% | percent of OC released ([3]; 5% Bicarbonate, 1 hour): 0% | percent of OC released ([3]; Water, 1 hour): 0% | percent of OC released ([3]; Water, 24 hours): 0%

COc1ccc(C(=O)OC2=CC[C@@]3(OC(=O)c4ccc(OC)cc4)[C@H]4Cc5ccc(OC)c6c5[C@@]3(CCN4C)[C@H]2O6)cc1 [(4-MeO-Bz)2-OC]
percent of OC released ([3]; 1N HCl, 1 hour): 0% | percent of OC released ([3]; 5% Bicarbonate, 1 hour): 0% | percent of OC released ([3]; Water, 1 hour): 0% | percent of OC released ([3]; Water, 24 hours): 0%

COc1cc(C(=O)OC2=CC[C@@]3(OC(=O)c4ccc(O)c(OC)c4)[C@H]4Cc5ccc(OC)c6c5[C@@]3(CCN4C)[C@H]2O6)ccc1O [(4-OH-3-MeO-Bz)2-OC]
percent of OC released ([3]; 1N HCl, 1 hour): 0% | percent of OC released ([3]; 5% Bicarbonate, 1 hour): 0% | percent of OC released ([3]; Water, 1 hour): 0% | percent of OC released ([3]; Water, 24 hours): 0%

COc1ccc2c3c1O[C@H]1C(OC(=O)c4ccc(O)cc4)=CC[C@@]4(OC(=O)c5ccc(O)cc5)[C@@H](C2)N(C)CC[C@]314 [(4-OH-Bz)2-OC]
percent of OC released ([3]; 1N HCl, 1 hour): 0% | percent of OC released ([3]; 5% Bicarbonate, 1 hour): 0% | percent of OC released ([3]; Water, 1 hour): 0% | percent of OC released ([3]; Water, 24 hours): 0%

COc1ccc2c3c1O[C@H]1C(OC(=O)c4ccccc4)=CC[C@@]4(OC(=O)c5ccccc5)[C@@H](C2)N(C)CC[C@]314 [(Bz)2-OC]
percent of OC released ([3]; 1N HCl, 1 hour): 0% | percent of OC released ([3]; 5% Bicarbonate, 1 hour): 0% | percent of OC released ([3]; Water, 1 hour): 0% | percent of OC released ([3]; Water, 24 hours): 0%

COc1ccc2c3c1O[C@H]1C(OC(=O)/C=C/c4ccccc4)=CC[C@@]4(OC(=O)/C=C/c5ccccc5)[C@@H](C2)N(C)CC[C@]314 [(Cin)2-OC]
percent of OC released ([3]; 1N HCl, 1 hour): 0% | percent of OC released ([3]; 5% Bicarbonate, 1 hour): 0% | percent of OC released ([3]; Water, 1 hour): 0% | percent of OC released ([3]; Water, 24 hours): 0%

COc1ccc2c3c1O[C@H]1C(OC(=O)c4ccccc4)=CC[C@@]4(O)[C@@H](C2)N(C)CC[C@]314 [Bz-OC]
percent of OC released ([3]; 1N HCl, 1 hour): 0% | percent of OC released ([3]; 5% Bicarbonate, 1 hour): 0% | percent of OC released ([3]; Water, 1 hour): 0% | percent of OC released ([3]; Water, 24 hours): 0%

COc1ccc2c3c1O[C@H]1C(OC(=O)c4ccccc4N)=CC[C@@]4(O)[C@@H](C2)N(C)CC[C@]314 [Conjugate 2-ABz-OC]
percent of OC released ([3]; 1N HCl, 1 hour): 0% | percent of OC released ([3]; 5% Bicarbonate, 1 hour): 3% | percent of OC released ([3]; Water, 1 hour): <1% | percent of OC released ([3]; Water, 24 hours): <1%

COc1ccc2c3c1O[C@H]1C(OC(=O)c4ccccc4O)=CC[C@@]4(O)[C@@H](C2)N(C)CC[C@]314 [Conjugate 2-OH-Bz-OC]
percent of OC released ([3]; 1N HCl, 1 hour): 0% | percent of OC released ([3]; 5% Bicarbonate, 1 hour): 5% | percent of OC released ([3]; Water, 1 hour): 0% | percent of OC released ([3]; Water, 24 hours): 0%

COc1ccc2c3c1O[C@H]1C(OC(=O)c4cccc(N)c4)=CC[C@@]4(O)[C@@H](C2)N(C)CC[C@]314 [Conjugate 3-ABz-OC]
AUC [1]: 3.6 ng·h/mL | Cmax [1]: 2.0 ng/mL | tmax [1]: 26.4 min | %-AUC of OC [1]: 69% | %-Cmax of OC [1]: 49% | %-tmax of OC [1]: 97% | AUC [2]: 52.9 ng·h/mL | Cmax [2]: 45.5 ng/mL | tmax [2]: 33 min | %-AUC of OC [2]: 83% | %-Cmax of OC [2]: 96% | %-tmax of OC [2]: 122% | percent of OC released ([3]; 1N HCl, 1 hour): <1% | percent of OC released ([3]; 5% Bicarbonate, 1 hour): <1% | percent of OC released ([3]; Water, 1 hour): 0% | percent of OC released ([3]; Water, 24 hours): 0%

COc1ccc2c3c1O[C@H]1C(OC(=O)c4cccc(O)c4)=CC[C@@]4(O)[C@@H](C2)N(C)CC[C@]314 [Conjugate 3-OH-Bz-OC]
percent of OC released ([3]; 1N HCl, 1 hour): <1% | percent of OC released ([3]; 5% Bicarbonate, 1 hour): 0% | percent of OC released ([3]; Water, 1 hour): 0% | percent of OC released ([3]; Water, 24 hours): 0%

COc1ccc2cc(C(C)C(=O)OC3=CCC4(O)C5Cc6ccc(OC)c7c6C4(CCN5C)C3O7)ccc2c1 (centres unmarked) [Naprox-OC]
percent of OC released ([3]; 1N HCl, 1 hour): <1% | percent of OC released ([3]; 5% Bicarbonate, 1 hour): 0% | percent of OC released ([3]; Water, 1 hour): 0% | percent of OC released ([3]; Water, 24 hours): 0%
